Consider six molecules from ChEMBL document CHEMBL1157501, “Novel fluorinated acridone derivatives. Part 1: synthesis and evaluation as potential anticancer agents” (Bioorg Med Chem Lett, 2008).

For one test, the system named is MCF7. Briefly: Growth inhibition of human MCF7 cells at 10 uM relative to control. The format is functional.
The test system of another test is T47D. Briefly: Growth inhibition of human T47D cells at 10 uM relative to control. The format is functional.
The test system of a further test is HOP-92. Briefly: Growth inhibition of human HOP92 cells at 10 uM relative to control. It counts as functional.
In another test the test system is A549. Briefly: Growth inhibition of human A549 cells at 10 uM relative to control. The format is functional.
The next test concerns HCT-116. Briefly: Growth inhibition of human HCT116 cells at 10 uM relative to control. It counts as functional.
Another test deals with HT-29. Briefly: Growth inhibition of human HT29 cells at 10 uM relative to control. The format is functional.
The next test deals with MOLT-4. Briefly: Growth inhibition of human MOLT4 cells at 10 uM relative to control. The format is functional.
A short description of test [1]: Growth inhibition of human HL60(TB) cells at 10 uM relative to control. It counts as functional, HL-60(TB). Conditions: HL-60.
Another test concerns CCRF-CEM. Briefly: Growth inhibition of human CCRF-CEM cells at 10 uM relative to control. The format is functional.
In the next test the test system is CAKI-1. Briefly: Growth inhibition of human CAKI1 cells at 10 uM relative to control. It counts as functional.
Another test relates to 786-0. Briefly: Growth inhibition of human 786-0 cells at 10 uM relative to control. It counts as functional.
In a further test the test system is UACC-257. Briefly: Growth inhibition of human UACC257 cells at 10 uM relative to control. The format is functional.
A further test has as its system SK-MEL-28. Briefly: Growth inhibition of human SK-MEL-28 cells at 10 uM relative to control. The format is functional.
The next test relates to SF-295. Briefly: Growth inhibition of human SF295 cells at 10 uM relative to control. The format is functional.
The next test concerns SNB-75. Briefly: Growth inhibition of human SNB75 cells at 10 uM relative to control. The format is functional.
The subject of a further test is BT-549. Briefly: Antiproliferative activity against human BT549 cells after 72 hrs by alamar blue assay. The format is functional, cell-based. Conditions: BT-549, 72 h.
In a further test the test system is BT-20. Briefly: Antiproliferative activity against human BT20 cells after 72 hrs by Alamar Blue assay. Conditions: BT-20, 72 h. The format is functional, cell-based. (In general: Alamar Blue is a resazurin reagent that responds to reducing activity.)
The next test concerns SW480. Briefly: Antiproliferative activity against human SW480 cells after 72 hrs by Alamar Blue assay. Conditions: SW480, 72 h. It counts as functional, cell-based.
Another test has as its system Jurkat. Briefly: Antiproliferative activity against human Jurkat cells after 72 hrs by Alamar Blue assay. The format is functional, cell-based.

Molecules are shown by their SMILES.

For the molecule `O=C1CC(C(F)(F)F)Cc2nc3ccccc3c(-c3ccccc3)c21` (stereo not drawn), the inhibition at 10 µM with MCF7 was below 20%; in the test on T47D it was below 20%; with HOP-92 it was 70%; in the test on A549, below 20%; in the test with HCT-116, 70%; in the test on HT-29 it was below 20%. For the same molecule, the inhibition at 10 µM in the test with MOLT-4 was below 20%; in test [1], 45%; in the test with CCRF-CEM it was below 20%; in the test on CAKI-1, below 20%; in the test on 786-0, below 20%; with UACC-257, 77%. Moreover, the inhibition at 10 µM in the test on SK-MEL-28, in the test on SF-295 and in the test with SNB-75 was below 20% throughout.

With `Cc1c2c(nc3ccc(Cl)cc13)CC(C(F)(F)F)CC2=O` (stereo not drawn), the IC50 in the test on BT-549 was found to be 12.1 µM; in the test with BT-20, 6.7 µM; with SW480 it was 15.3 µM; in the test with Jurkat, 5.1 µM. Also, the inhibition at 10 µM in the test with MCF7 is 95%; with T47D, 43%; in the test on HOP-92, 58%; in the test on A549, below 20%; in the test on HCT-116, below 20%; with HT-29, 43%. The inhibition at 10 µM was 95% in the test with MOLT-4; below 20% in test [1]; below 20% with CAKI-1; below 20% in the test on 786-0; below 20% in the test with UACC-257; below 20% with SK-MEL-28. Besides, the inhibition at 10 µM in the test on SF-295 and in the test with SNB-75 was below 20% each time.

Take `O=C1CC(C(F)(F)F)Cc2nc3ccc(Cl)cc3c(-c3ccccc3)c21` (stereo not drawn): the IC50 in the test on BT-549 was determined as 16.1 µM; in the test with BT-20, 22.1 µM; with SW480, 28.4 µM; in the test on Jurkat, 12.3 µM. Besides, the inhibition at 10 µM with MCF7 is below 20%; in the test with T47D it was below 20%; in the test on HOP-92, 37%; in the test on A549 it was 80%; in the test on HCT-116, 25%; with HT-29, below 20%. In addition, the inhibition at 10 µM was below 20% in the test with CCRF-CEM; 66% in the test with CAKI-1; below 20% in the test on 786-0; 40% with UACC-257; below 20% in the test on SK-MEL-28; 48% in the test on SF-295. The inhibition at 10 µM with SNB-75 was below 20%.

With `O=C1CC(C(F)(F)F)Cc2nc3ccc(Br)cc3c(-c3ccccc3F)c21` (stereo not drawn), the IC50 came out at 17.4 µM in the test with BT-549, 23.3 µM in the test with BT-20, 15.5 µM with SW480 and 11.6 µM in the test on Jurkat. Further, the inhibition at 10 µM in the test on MCF7 was below 20%; with T47D, below 20%; in the test with HOP-92, 48%; in the test on A549, below 20%; with HCT-116, 35%; with HT-29, below 20%. Moreover, the inhibition at 10 µM in the test with MOLT-4 was below 20%; in [1], 29%; in the test with CCRF-CEM, 28%; in the test with CAKI-1, 45%; in the test on 786-0 it was 62%; in the test with UACC-257, below 20%. In addition, the inhibition at 10 µM with SK-MEL-28, with SF-295 and in the test on SNB-75 was below 20% in each case.

Turning to `O=C1CC(C(F)(F)F)Cc2nc3ccc(Cl)cc3c(-c3ccccc3Cl)c21` (stereo not drawn), the IC50 turned out to be 39.3 µM in the test on BT-549, 42.1 µM in the test with BT-20, 21.3 µM in the test with SW480 and 87.6 µM with Jurkat. Moreover, the inhibition at 10 µM was below 20% with MCF7; below 20% in the test with T47D; 38% in the test with HOP-92; 50% in the test with A549; 38% with HCT-116; below 20% with HT-29. For the same molecule, the inhibition at 10 µM in the test with MOLT-4 is 46%; in test [1], below 20%; in the test on CCRF-CEM, 60%; in the test with CAKI-1, below 20%; in the test with 786-0 it was below 20%; in the test on UACC-257 it was below 20%. Besides, the inhibition at 10 µM in the test with SK-MEL-28, in the test with SF-295 and with SNB-75 was below 20% in each case.

Take `Cc1c2c(nc3cc4c(cc13)OCO4)CC(C(F)(F)F)CC2=O` (stereo not drawn): the inhibition at 10 µM with MCF7 was below 20%; in the test on T47D, below 20%; in the test on HOP-92 it was below 20%; with A549, 67%; with HCT-116, below 20%; in the test on HT-29, below 20%. Besides, the inhibition at 10 µM (in the test with MOLT-4; in test [1]; with CCRF-CEM; in the test with CAKI-1; in the test on 786-0; in the test with UACC-257) was below 20% throughout. The inhibition at 10 µM in the test on SK-MEL-28 was below 20%; in the test with SF-295, 32%; with SNB-75, 25%.

One may read the inhibition as the drop in the measured response relative to a control, in per cent. As a reminder, the IC50 is the midpoint of a concentration-inhibition curve. High values mean weaker potency in that assay, low ones greater potency in that assay.
